Source: the NIST ThermoML archive (doi:10.1021/je400576e)
Numbers after ± are expanded uncertainties.

Details: for viscosity / mass density: 101 kPa, Liquid; for mass density: Vibrating tube method

| Structure (SMILES) | surface tension liquid-gas (293.15 K) [mN/m] | viscosity (293.15 K) [mPa·s] | mass density (293.15 K) [kg/m3] | surface tension liquid-gas (298.15 K) [mN/m] | viscosity (298.15 K) [mPa·s] | mass density (298.15 K) [kg/m3] | surface tension liquid-gas (303.15 K) [mN/m] | viscosity (303.15 K) [mPa·s] | mass density (303.15 K) [kg/m3] | surface tension liquid-gas (313.15 K) [mN/m] | viscosity (313.15 K) [mPa·s] | mass density (313.15 K) [kg/m3] | surface tension liquid-gas (323.15 K) [mN/m] | viscosity (323.15 K) [mPa·s] | mass density (323.15 K) [kg/m3] | surface tension liquid-gas (333.15 K) [mN/m] | viscosity (333.15 K) [mPa·s] | mass density (333.15 K) [kg/m3] |
| --- | --- | --- | --- | --- | --- | --- | --- | --- | --- | --- | --- | --- | --- | --- | --- | --- | --- | --- |
| COP(=O)([O-])OC.Cn1cc[n+](C)c1 [1,3-dimethylimidazolium dimethylphosphate] | 47.78 ± 1.5 | 381.22 ± 65 | 1254 ± 9 | 46.98 ± 1.5 | 336.74 ± 56 | 1250 ± 9 | 46.21 ± 1.4 | 221.41 ± 34 | 1247 ± 9 | 44.89 ± 1.4 | 178.66 ± 26 | 1240 ± 9 | 42.67 ± 1.4 | 147.95 ± 21 | 1233 ± 9 | 41.99 ± 1.3 | 133.73 ± 19 | 1230 ± 8 |
| CCOP(=O)([O-])OCC.CCn1cc[n+](C)c1 [1-ethyl-3-methylimidazolium diethyl phosphate] | 34.78 ± 1.3 | 537.03 ± 99 | 1151 ± 10 | 34.46 ± 1.3 | 320.89 ± 53 | 1146 ± 9 | 34.19 ± 1.2 | 284.34 ± 46 | 1141 ± 9 | 33.54 ± 1.2 | 150.96 ± 22 | 1130 ± 9 | 33.15 ± 1.2 | 90.02 ± 12 | 1116 ± 9 | 32.81 ± 1.2 | 58.02 ± 7.5 | 1103 ± 9 |
| CCCO [propan-1-ol] | 23.67 ± 0.72 | 2.2 ± 0.28 | 804 ± 5 | 23.31 ± 0.72 | 1.99 ± 0.26 | 800.1 ± 5.1 | 22.81 ± 0.7 | 1.73 ± 0.22 | 796 ± 5 | 22.19 ± 0.69 | 1.38 ± 0.18 | 788 ± 5 | 21.34 ± 0.67 | 1.12 ± 0.15 | 780 ± 5 | 20.66 ± 0.65 | 0.91 ± 0.12 |  |
| CC(C)O [propan-2-ol] | 21.28 ± 0.67 | 2.41 ± 0.31 | 786 ± 5 | 20.94 ± 0.66 | 2.06 ± 0.27 | 781 ± 5 | 20.54 ± 0.65 | 1.79 ± 0.23 | 777 ± 5 | 19.97 ± 0.64 | 1.35 ± 0.17 | 768 ± 5 | 18.87 ± 0.61 | 1.03 ± 0.13 | 759 ± 5 | 18.11 ± 0.59 | 0.82 ± 0.11 | 750 ± 5 |
